Results as given in US8993585B2, “Cyclic amine substituted pyrimidinediamines as PKC inhibitors” (Rigel Pharmaceuticals, Inc., priority 2007, dated 2015).

Assays:
PKC theta = molecular target: T1, PKC theta (Homo sapiens, UniProt Q04759); experiment: PKC assay, fluorescence polarization (Example 2), PKC theta; format: biochemical; conditions: 5 μM ATP
T1 construct: purchased Upstate Biotechnologies, Temecula, CA 14-444
Experimental: (§1) The inhibition of PKC activity was measured by monitoring the production of phosphorylated peptide by fluorescence polarization at different concentrations of the inhibitor. Reactions were carried out in 96-well plate format with a total volume of 20 μL containing 20 mM HEPES, pH 7.4, 5 mM MgCl2, 0.2 mM CaCl2, 1 mM DTT, 0.02% Brij-35, 0.1 mg/mL phosphatidylserine, 0.02 mg/mL dioleoyl-sn-glycerol and 5 μM each of ATP and the peptide substrate. Compounds were first diluted serially in DMSO and then transferred to a solution containing the above concentrations of HEPES, MgCl2, CaCl2, DTT, and Brij-35 to yield 5× compound solutions in 2% DMSO, which was then added to the reaction solution. Reactions were initiated by the addition of PKC at a typical concentration as described in Table VI, and then allowed to incubate at room temperature for 20 min. At the end of this time, a combination of quench (EDTA) and detection (peptide tracer and antibody) reagents was added using the protocol of Invitrogen P2748.

PKC epsilon = molecular target: T2, PKC epsilon (Homo sapiens, UniProt Q02156); experiment: PKC assay, fluorescence polarization (Example 2), PKC epsilon; format: biochemical; conditions: 5 μM ATP
T2 construct: purchased Upstate Biotechnologies, Temecula, CA 14-518
T2 sequence (Q02156 1-737): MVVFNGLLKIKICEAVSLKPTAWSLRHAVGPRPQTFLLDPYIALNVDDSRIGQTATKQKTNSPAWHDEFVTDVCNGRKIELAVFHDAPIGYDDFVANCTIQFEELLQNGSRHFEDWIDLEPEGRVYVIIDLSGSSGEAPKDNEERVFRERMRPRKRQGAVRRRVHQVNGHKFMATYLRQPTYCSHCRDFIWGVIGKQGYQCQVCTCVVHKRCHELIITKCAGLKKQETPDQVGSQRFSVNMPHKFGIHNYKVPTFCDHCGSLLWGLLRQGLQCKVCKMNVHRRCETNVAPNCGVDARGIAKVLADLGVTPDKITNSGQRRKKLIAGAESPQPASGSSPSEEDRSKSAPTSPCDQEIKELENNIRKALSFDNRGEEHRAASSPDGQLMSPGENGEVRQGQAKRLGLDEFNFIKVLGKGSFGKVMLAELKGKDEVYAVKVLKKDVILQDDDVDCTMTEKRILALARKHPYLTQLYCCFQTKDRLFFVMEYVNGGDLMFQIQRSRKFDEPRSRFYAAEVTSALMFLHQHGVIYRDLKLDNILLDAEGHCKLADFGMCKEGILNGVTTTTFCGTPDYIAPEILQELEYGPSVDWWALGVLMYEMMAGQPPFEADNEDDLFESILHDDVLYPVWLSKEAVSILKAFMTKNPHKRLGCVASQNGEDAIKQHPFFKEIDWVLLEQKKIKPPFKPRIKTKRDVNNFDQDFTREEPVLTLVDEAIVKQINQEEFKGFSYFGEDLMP
Experimental: as §1

Human primary T cells = experiment: IL-2 ELISA, Human Primary T Cell, Anti-CD3+CD28+ (Example 3); format: cell-based; conditions: anti-CD3+CD28 stimulation
Procedure, shortened: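 IL-2 was read by ELISA after stimulation on wells pre-coated with 1 ug/ml αCD3 and 5 μg/ml αCD28. Before this, 100,000 human primary T cells per well spent 1 h at 37 °C with test compound in Yssel's medium. The counter-screen replaced antibody stimulation with PMA (0.5 ng/ml final) and ionomycin (0.1 uM final).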

T1 sequence (Q04759 whole entry): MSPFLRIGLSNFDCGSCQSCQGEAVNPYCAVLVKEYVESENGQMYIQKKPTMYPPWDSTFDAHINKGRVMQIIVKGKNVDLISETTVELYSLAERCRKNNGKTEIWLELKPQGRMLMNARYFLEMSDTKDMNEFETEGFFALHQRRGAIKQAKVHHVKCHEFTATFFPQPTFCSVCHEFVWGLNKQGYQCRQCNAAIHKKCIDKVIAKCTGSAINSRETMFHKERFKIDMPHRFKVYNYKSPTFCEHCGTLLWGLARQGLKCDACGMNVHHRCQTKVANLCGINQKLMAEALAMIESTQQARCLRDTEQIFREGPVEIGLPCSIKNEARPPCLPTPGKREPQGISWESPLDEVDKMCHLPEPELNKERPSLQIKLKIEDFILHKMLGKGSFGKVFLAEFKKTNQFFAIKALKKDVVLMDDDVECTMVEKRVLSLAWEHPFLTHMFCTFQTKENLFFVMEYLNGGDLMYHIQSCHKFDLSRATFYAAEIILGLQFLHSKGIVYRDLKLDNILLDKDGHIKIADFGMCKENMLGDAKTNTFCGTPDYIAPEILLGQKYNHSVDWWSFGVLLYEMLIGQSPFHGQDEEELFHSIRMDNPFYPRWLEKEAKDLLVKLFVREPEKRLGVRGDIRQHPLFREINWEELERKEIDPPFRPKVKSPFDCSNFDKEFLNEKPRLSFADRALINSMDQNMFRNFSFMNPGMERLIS

| SMILES | IC50 (PKC theta) [nM] | IC50 (PKC epsilon) [nM] | IC50 (Human primary T cells; Homo sapiens, T-cell, 24 h) [nM] | IC50 (Human primary T cells; 24 hours) [nM] |
| --- | --- | --- | --- | --- |
| CCN1C(=O)C(C)(C)Oc2cc(Nc3ncc(C#N)c(NC4CC(C)(C)N(C)C(C)(C)C4)n3)ccc21 [II-45] | 1.8 | 179 | 103 | – |
| CN1C(C)(C)CC(Nc2nc(Nc3ccc(N4CCN(S(C)(=O)=O)CC4)c(Cl)c3)ncc2C#N)CC1(C)C [Compound I-102] | 12.6 | 218 | 217 | – |
| COc1cc(Nc2ncc(C(F)(F)F)c(NC3CC(C)(C)N(C)C(C)(C)C3)n2)cc(-n2cnnn2)c1 [Compound I-356] | 7.26 | 43 | 96 | – |
| CCN1C(=O)C(C)(C)Oc2cc(Nc3ncc(C)c(NC4CC(C)(C)N(C)C(C)(C)C4)n3)ccc21 [II-145] | 28.1 | 2690 | 370 | – |
| CCOc1ccc(Nc2ncc(C(N)=O)c(NC3CC(C)(C)N(C)C(C)(C)C3)n2)cc1-n1nnnc1CC [Compound I-420] | 3.2 | 115 | 250 | – |
| CN1C(C)(C)CC(Nc2nc(Nc3ccc(C(F)(F)F)c(N4CCN(S(C)(=O)=O)CC4)c3)ncc2F)CC1(C)C [Compound I-216] | 5.99 | 29 | 174 | – |
| COc1cc(Nc2ncc(Cl)c(NC3CC(C)(C)N(C)C(C)(C)C3)n2)cc(OC)c1 [Compound I-340] | 2.81 | 15.6 | 159 | – |
| COc1cc(Nc2ncc(Br)c(NC3CC(C)(C)N(C)C(C)(C)C3)n2)cc(OC)c1 [Compound I-422] | 10.2 | 165 | 250 | – |
| CCN1CCN(c2ccc(Nc3ncc(F)c(NC4CC(C)(C)N(C)C(C)(C)C4)n3)cc2Cl)CC1 [Compound I-248] | 2.75 | 13.4 | 110 | – |
| Cc1ccc(Nc2ncc(C#N)c(NC3CC(C)(C)NC(C)(C)C3)n2)cc1-n1cnnn1 [Compound I-461] | 0.8 | 50 | 230 | – |
| CN1CCN(c2ncc(Nc3ncc(F)c(NC4CC(C)(C)N(C)C(C)(C)C4)n3)cc2C(F)(F)F)CC1 [Compound I-273] | 3.34 | 4.87 | – | 217 |
| CCOc1ccc(Nc2ncc(C#N)c(NC3CC(C)(C)NC(C)(C)C3)n2)cc1-n1nnnc1CC [Compound I-469] | 1.5 | 129 | 120 | – |
| CN1C(C)(C)CC(Nc2nc(Nc3ccc(-c4cccnc4)c(F)c3)ncc2F)CC1(C)C [Compound I-118] | 18.2 | 10.3 | 237 | – |
| CN1C(C)(C)CC(Nc2nc(Nc3ccc(N4CCN(S(C)(=O)=O)CC4)c(Cl)c3)ncc2C(F)(F)F)CC1(C)C [Compound I-92] | 4.56 | 271 | 208 | – |

Continued, in another order:

| IC50 (PKC theta) [nM] | IC50 (PKC epsilon) [nM] | IC50 (Human primary T cells; Homo sapiens, T-cell, 24 h) [nM] | SMILES | IC50 (Human primary T cells; 24 hours) [nM] |
| --- | --- | --- | --- | --- |
| 4.92 | 51 | 305 | Cc1ccc(Nc2ncc(F)c(NC3CC(C)(C)N(C)C(C)(C)C3)n2)cc1-c1ccncc1 [Compound I-187] | – |
| 2.56 | 311 | 292 | CN1C(C)(C)CC(Nc2nc(Nc3ccc(Cl)c(C#N)c3)ncc2Cl)CC1(C)C [Compound I-165] | – |
| 2.06 | 54.6 | 99.1 | COc1ccc(Nc2ncc(F)c(NC3CC(C)(C)N(C)C(C)(C)C3)n2)cc1OC(F)F [Compound I-239] | – |
| 55.3 | 27.8 | 309 | CN1C(C)(C)CC(Nc2nc(Nc3ccc(-c4ccoc4)c(F)c3)ncc2F)CC1(C)C [Compound I-119] | – |
| 2.88 | 9.58 | 135 | CN1C(C)(C)CC(Nc2nc(Nc3ccc(N4CCSCC4)c(C#N)c3)ncc2F)CC1(C)C [Compound I-199] | – |
| 1.82 | 12.5 | 64.9 | CN1CCN(c2ccc(Nc3ncc(F)c(NC4CC(C)(C)N(C)C(C)(C)C4)n3)cc2C#N)CC1 [Compound I-132] | – |
| 2.92 | 31 | 80.7 | Cc1ccc(Nc2ncc(F)c(NC3CC(C)(C)N(C)C(C)(C)C3)n2)cc1C#N [Compound I-142] | – |
| 26 | 154 | 221 | CN1C(C)(C)CC(Nc2nc(Nc3cccc(-c4ccoc4)c3)ncc2F)CC1(C)C [Compound I-105] | – |
